Test results as given in PubChem BioAssay (NCI).
“And” between values parts separate entries of the source, which are not always exact repeats. Equal entries are not always repeated.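 Protocol summary: plate cells (96-well), add compound at 5 concentrations, incubate 48 h, interpolate endpoints linearly. GI50 = concentration required for 50% inhibition of growth. The concentration for full growth arrest is given as TGI.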

Columns and labels:
Assay in all cases: NCI anticancer screen, dose series, 48 h
DU-145 prostate = test system: DU-145 prostate
HS 578T breast = test system: HS 578T breast
NCI/ADR-RES ovarian = test system: NCI/ADR-RES ovarian
DLD-1 colon = test system: DLD-1 colon
KM20L2 colon = test system: KM20L2 colon
LXFL 529 NSCLC = test system: LXFL 529 NSCLC
SNB-78 CNS = test system: SNB-78 CNS
MDA-N = test system: MDA-N

Row | SMILES | GI50 (DU-145 prostate) | TGI (DU-145 prostate) | GI50 (HS 578T breast) | TGI (HS 578T breast) | GI50 (NCI/ADR-RES ovarian) | TGI (NCI/ADR-RES ovarian) | TGI (DLD-1 colon) | TGI (KM20L2 colon) | TGI (LXFL 529 NSCLC) | TGI (SNB-78 CNS) | TGI (MDA-N) | GI50 (MDA-N)
1 | CN(C)/[N+]([O-])=N/Oc1cc(Nc2cccc(C(=O)O)c2)c([N+](=O)[O-])cc1[N+](=O)[O-] | > 100 µM | > 100 µM | 34.7 µM | > 100 µM | > 100 µM | > 100 µM | – | – | – | – | – | –
2 | Cc1ccc(Nc2nc(NCCO)c3ccccc3n2)cc1C | 10.3 µM | 22 µM | 12.4 µM | 33.8 µM | 7.18 µM | 20.6 µM | – | – | – | – | – | –
3 | O=C1/C(=C/c2cccc([N+](=O)[O-])c2)COc2ccc(O)c(O)c21 | 1.9 µM | 4.39 µM | 2.04 µM | 7.47 µM | 2.43 µM | 18 µM | – | – | – | – | – | –
4 | O=C(O)c1ccc(S(=O)(=O)c2ccccc2)c([N+](=O)[O-])c1 | – | – | – | – | – | – | > 100 µM | > 100 µM | > 100 µM | > 100 µM | – | –
5 | CC/C=C\C[C@H](O)C/C=C1/C(=O)C=C[C@@H]1C/C=C\CCCC(=O)NC(C)C | 3.22 µM | 13.5 µM | 7.74 µM | 49.5 µM | 3.28 µM | 13.6 µM | – | – | – | – | – | –
6 | COc1cccc(-c2nn(-c3ccccc3)cc2-c2ccnc(NCCNS(=O)(=O)c3ccc(Cl)cc3)c2)c1 | 7.55 µM | > 100 µM | 5.73 µM | > 100 µM | 4.29 µM | > 100 µM | – | – | – | – | – | –
7 | CS(=O)(=O)c1ccc(Oc2cc(F)cc(C#N)c2)c2c1[C@H](O)[C@H](F)[C@@H]2F | > 100 µM | > 100 µM | > 100 µM | > 100 µM | > 100 µM | > 100 µM | – | – | – | – | – | –
8 | CCCCCCCCCCCCN1C(C)=CS/C1=C\C=C\c1scc(C)[n+]1CCCCCCCCCCCC | 2.38 µM | 10.5 µM | 1.77 µM | 6.62 µM | 3.06 µM | 34.4 µM | – | – | – | – | – | –
9 | CCCc1c2c([nH]c(=O)c1C)C(=O)c1[nH]c(=O)c(C)c(CCC)c1C2=O | – | – | – | – | – | – | – | – | > 100 µM | > 100 µM | – | –
10 | OCCN(CCO)N=Nc1ccc(-c2nc3ccccc3[nH]2)cc1 | 20.9 µM | 46.6 µM | 23.5 µM | 72.8 µM | 34 µM | 58 µM | – | – | – | – | – | –
11 | CC(O)C1OC(O)C2OC(C)(C)OC12 (centres undefined) | – | > 100 µM | – | > 100 µM | – | > 100 µM | – | – | – | – | > 100 µM | –
12 | CC(C)C[C@H](NC(=O)[C@H](Cc1ccccc1)n1ccc(N2CCCCC2)cc1=O)B(O)O | 0.706 µM | > 100 µM | 0.427 µM | 6.2 µM | 17.4 µM | > 100 µM | – | – | – | – | – | –
13 | CC(C(=O)N1C(=O)N(C(=O)C(C)C(O)c2ccccc2)C(c2ccccc2)C1c1ccccc1)C(O)c1ccccc1 (centres undefined) | – | > 100 µM | – | 95.1 µM | – | – | – | – | – | – | – | –
14 | O=C(Nc1ccc(Cl)c(C(F)(F)F)c1)C(=O)C(C(=O)/C=C/c1ccccc1)C1OC(=O)c2ccccc21 (centres undefined) | – | – | – | – | – | – | > 100 µM | > 100 µM | > 100 µM | > 100 µM | – | –
15 | Cc1ccc(C)c(NC(=O)C(=O)C2C(=O)C3=C(CC2(C)C)Nc2ccccc2S3)c1 (centres undefined) | – | > 100 µM | – | > 100 µM | – | > 100 µM | – | – | – | – | > 100 µM | –
16 | Cn1c(C(N)=O)cc2c1-c1nc(Nc3ccccc3)ncc1CCC2 | 6.18 µM | 62.7 µM | 1.97 µM | 6.9 µM | 6.3 µM | 49.8 µM | – | – | – | – | – | –

Row | SMILES | GI50 (DU-145 prostate) | TGI (DU-145 prostate) | GI50 (HS 578T breast) | TGI (HS 578T breast) | GI50 (NCI/ADR-RES ovarian) | TGI (NCI/ADR-RES ovarian) | TGI (DLD-1 colon) | TGI (KM20L2 colon) | TGI (LXFL 529 NSCLC) | TGI (SNB-78 CNS) | TGI (MDA-N) | GI50 (MDA-N)
17 | CC(=O)N1CCC2(C=Nc3ccccc32)CC1 | – | – | – | – | – | – | > 100 µM | > 100 µM | > 100 µM | > 100 µM | – | –
18 | O=C(O)c1ccc(NC(=O)C2C(=O)C(=O)N(c3ccc(C(=O)O)cc3)C2=O)cc1 (centres undefined) | – | – | – | – | – | – | > 100 µM | > 100 µM | – | > 100 µM | – | –
19 | COC(=O)/C=C/c1cc(O)c2c(c1)C(C(=O)OC)C(c1ccc(O)c(O)c1)O2 (centres undefined) | 0.372 µM and 0.053 µM | > 100 µM | 0.468 µM and 0.0614 µM | > 100 µM | 0.11 µM and 0.0614 µM | > 100 µM | – | – | – | – | – | –
20 | CC[C@@H]1C[C@@H]2CN3CCc4c([nH]c5ccc(OC)cc45)C(COC(=O)c4ccc(OC)c(OC)c4)(C2)C13 | – | – | – | – | – | – | – | 74.3 µM | 35.1 µM | > 100 µM | – | –
21 | CC(C)(C)[OH+][O-].[O-]c1ccc(Cl)cc1C=Nc1ccc(Cl)cc1[O-].[O]=[V] | 16.5 µM | 54.2 µM | 19.4 µM | 52.6 µM | 29.1 µM | > 100 µM | – | – | – | – | > 100 µM | 7.92 µM
22 | CN/N=C(/Cc1occc(=O)c1O)C(=O)Nc1ccc(C)c(C)c1 | – | – | – | – | – | – | – | > 100 µM | > 100 µM | > 100 µM | – | –
23 | COc1cc(/C=C(/C)[N+](=O)[O-])ccc1O | 2.01 µM and 1.59 µM | 4.11 µM and 3.26 µM | 4.67 µM | > 28.4 µM | 3.18 µM and 3.08 µM | 11.8 µM and 10.9 µM | – | – | – | – | – | –
24 | C=C1C(=O)O[C@H]2[C@H]1CC/C(COC(=O)C(=O)c1c[nH]c3ccccc13)=C\CC[C@@]1(C)O[C@@H]21 | 3.12 µM | 11.8 µM | 4.89 µM | > 100 µM | 3.92 µM | 19.4 µM | – | – | – | – | – | –
25 | O=C(Nc1ccc(S(=O)(=O)Nc2nccs2)cc1)c1cccnc1Nc1cccc(Cl)c1 | 15.2 µM | 30.6 µM | 19.5 µM | 67.5 µM | 15.6 µM | 45.7 µM | – | – | – | – | – | –
26 | COc1ccc(C(=O)Cn2c(C(=O)c3ccc(OC)cc3)nc3ccccc32)cc1 | 4.31 µM | > 100 µM | 2.14 µM | > 28.5 µM | 0.671 µM | 4.06 µM | – | – | – | – | – | –
27 | Oc1c(CN2CCC(N3CCOCC3)CC2)cc(Cc2cc(CN3CCC(N4CCOCC4)CC3)c(O)c3ncccc23)c2cccnc12 | 0.612 µM | > 100 µM | 10 µM | 48 µM | 3.54 µM | > 100 µM | – | – | – | – | – | –
28 | Cn1ccnc1C(=O)/C=C/c1ccc(CC(=O)Nc2ccc(Cl)cc2)cc1 | 1.42 µM | > 25 µM | 15.7 µM | > 25 µM | 2.22 µM | > 25 µM | – | – | – | – | – | –
29 | Oc1ccc(C(c2ccccc2)(c2ccccc2)c2ccccc2)cc1 | 13.3 µM | 27.8 µM | 17.6 µM | 65.1 µM | 15 µM | 28.6 µM | – | – | – | – | – | –
30 | Cc1ccc(NC(=O)c2[nH]c(=S)nc(N)c2-c2ccccc2C)cc1C | – | – | – | – | – | – | > 100 µM | > 100 µM | > 100 µM | > 100 µM | – | –
31 | CN(C)CCNC(=O)c1ccc(Nc2nc3ccccc3c3occc23)cc1 | 6.94 µM | 20.7 µM | 18.6 µM | 42.1 µM | 8.92 µM | 22.6 µM | – | – | – | – | – | –
